Columns and labels:
[1] = FDG-PET relative cerebral metabolic rate for glucose, clinical study; assay type: in vivo, human; conditions: for R CMRgl change (EOT-BL) relative to average Whole Brain: combined dose groups
Text: FDG-PET Data from Clinical Study with Compound of Example 11
FDG-PET scans were obtained at three clinical sites.
Increases and decreases in relative regional glucose metabolism (A R CMRgl (EOT-BL)) were observed over the treatment period.

[2] = Fasted plasma metabolomics, clinical study; assay type: in vivo, human
Method: Plasma Metabolomic Data from Clinical Study with Compound of Example 11
Fasted plasma metabolomics biomarkers were examined seeking evidence of systemic and brain pharmacological effects of Compound from Example 11. Over 800 chemically defined metabolites were examined for each dose group and a ratio EOT/BL) was calculated with an associated p value. Four dose groups were tested, 3, 10 30 and 90 mg. In general, the 30 and 90 mg dose groups had the largest impact on the metabolomics profile, each with 120 metabolites with p<0.05, while the 3 and 10 mg groups had smaller effects (40 and 61 with p<0.05 respectively). The metabolites were split into about 60 families. […] BCAAs are positively correlated with insulin resistance and diabetes. […] Some of these metabolites, such as isovaleryl and isobutyryl carnitine are part of a principal component shown to be positively associated with insulin resistance. The numbers in Table 7 are ratios of the dose group averages end of treatment (EOT) to baseline (BL). A green box indicates a statistically significant (p<0.05) decrease in metabolite. The light green indicates the p value is between 0.05 and 0.1. Statistical comparisons between doses and visits were conducted using Two-Way Repeated Measure ANOVA. Reference is made to Newgard CB, 2017. Metabolomics and Metabolic Disease, Where Do We Stand? Cell Metabolism 25: 43-56, which is incorporated by reference with regard to the example.

## CCc1oc(-c2ccc(OC)cc2)nc1CCOc1ccc2c(c1)CC[C@H]2CC(=O)[O-].[Na+] [Example 11, Sodium (S)-2-(5-(2-(5-ethyl-2-(4-methoxyphenyl)oxazol-4-yl)ethoxy)-2,3-dihydro-1H-inden-1-yl)acetate]
[1]; 10 mg
  spatial extent of ROSDs with positive R CMRgl change (p<0.005): 70 voxels
[1]; 90 mg
  spatial extent of ROSDs with positive R CMRgl change (p<0.005): 2136 voxels
[1]; Cingulum Ant L
  R CMRgl change (EOT-BL) relative to average Whole Brain: 0.03 ± 0.04
[1]; Cingulum Ant R
  R CMRgl change (EOT-BL) relative to average Whole Brain: 0.02 ± 0.05
[1]; Cingulum Ant intersection L
  R CMRgl change (EOT-BL) relative to average Whole Brain: 0.04 ± 0.05
[1]; Cingulum Ant intersection R
  R CMRgl change (EOT-BL) relative to average Whole Brain: 0.03 ± 0.04
[1]; Insula L
  R CMRgl change (EOT-BL) relative to average Whole Brain: 0.02 ± 0.03
[1]; Insula R
  R CMRgl change (EOT-BL) relative to average Whole Brain: 0.02 ± 0.04
[1]; Insula intersection L
  R CMRgl change (EOT-BL) relative to average Whole Brain: 0.03 ± 0.03
[1]; Insula intersection R
  R CMRgl change (EOT-BL) relative to average Whole Brain: 0.03 ± 0.04
[1]; Orbital front intersection L
  R CMRgl change (EOT-BL) relative to average Whole Brain: 0.03 ± 0.04
[1]; Orbital front intersection R
  R CMRgl change (EOT-BL) relative to average Whole Brain: 0.03 ± 0.03
[1]; Putamen L
  R CMRgl change (EOT-BL) relative to average Whole Brain: 0.05 ± 0.07
[1]; Putamen R
  R CMRgl change (EOT-BL) relative to average Whole Brain: 0.05 ± 0.06
[1]; Putamen intersection L
  R CMRgl change (EOT-BL) relative to average Whole Brain: 0.06 ± 0.06
[1]; Putamen intersection R
  R CMRgl change (EOT-BL) relative to average Whole Brain: 0.06 ± 0.06
[2]; 3 mg
  2-methylbutyrylcarnitine (C5), ratio EOT/BL: 0.99
  3-hydroxybutyrlcarnite, ratio EOT/BL: 1.2
  Adrenoylcarnitine (C22:4)*, ratio EOT/BL: 1.41
  Arachidonoylcarnitine (C20:4), ratio EOT/BL: 1.34
  Arachidoylcarnitine (C20)*, ratio EOT/BL: 1.11
  Ceramide (d18:2/24:1, d18:1/24:2), ratio EOT/BL: 1.08
  Dihomo-linoleoylcarnitine (C20:2)*, ratio EOT/BL: 1.24
  Docosapentaenoylcarnitine (C22:5n3)*, ratio EOT/BL: 1.39
  Eicosenoylcarnitine (C20:1), ratio EOT/BL: 1.22
  Linolenoylcarnitine (C18:3)*, ratio EOT/BL: 1.17
  Linoleoylcarnitine (C18:2)*, ratio EOT/BL: 1.22
  Margaroylcarnitine*, ratio EOT/BL: 1.03
  Myristoycarnitine (C14), ratio EOT/BL: 1.32
  N-acetylleucine, ratio EOT/BL: 0.98
  N-palmitoyl-sphingosince (d18:1/16:0), ratio EOT/BL: 1.06
  N-stearoyl-sphinogosince (d18:1/18:0), ratio EOT/BL: 1.05
  Oleoylcarnitine (C18:1), ratio EOT/BL: 1.34
  Palmitoleoylcarnitine (C16:1)*, ratio EOT/BL: 1.44
  Palmitoylcaritine (C16), ratio EOT/BL: 1.25
  Stearoylcarnitine (C18), ratio EOT/BL: 1.11
  acetylcarnitine (C2), ratio EOT/BL: 1.14
  ceramide (d16:1/24:1, d18:1/22:1), ratio EOT/BL: 1.13
  ceramide (d18:1/14:0, d16:1/16:0), ratio EOT/BL: 1.1
  ceramide (d18:1/17:0, d17:1/18:0), ratio EOT/BL: 1.03
  ceramide (d18:1/20:0, d16:1/22:0 d20:1/18:0), ratio EOT/BL: 1.12
  isobutyrylcarnitine (C4), ratio EOT/BL: 0.95
  isoleucine, ratio EOT/BL: 0.93
  isovalerylcarnitine (C5), ratio EOT/BL: 1.11
  laurylcarnitine (C12), ratio EOT/BL: 1.4
  leucine, ratio EOT/BL: 0.95
  number of metabolites with p<0.05: 40
  octanoylcarnitine (C8), ratio EOT/BL: 1.33
  valine, ratio EOT/BL: 0.93
[2]; 10 mg
  2-methylbutyrylcarnitine (C5), ratio EOT/BL: 1.02
  3-hydroxybutyrlcarnite, ratio EOT/BL: 1.19
  Adrenoylcarnitine (C22:4)*, ratio EOT/BL: 1.23
  Arachidonoylcarnitine (C20:4), ratio EOT/BL: 1.23
  Arachidoylcarnitine (C20)*, ratio EOT/BL: 1.09
  Ceramide (d18:2/24:1, d18:1/24:2), ratio EOT/BL: 0.96
  Dihomo-linoleoylcarnitine (C20:2)*, ratio EOT/BL: 1.24
  Docosapentaenoylcarnitine (C22:5n3)*, ratio EOT/BL: 1.18
  Eicosenoylcarnitine (C20:1), ratio EOT/BL: 1.03
  Linolenoylcarnitine (C18:3)*, ratio EOT/BL: 1.19
  Linoleoylcarnitine (C18:2)*, ratio EOT/BL: 1.21
  Margaroylcarnitine*, ratio EOT/BL: 1.15
  Myristoycarnitine (C14), ratio EOT/BL: 1.13
  N-acetylleucine, ratio EOT/BL: 1
  N-palmitoyl-sphingosince (d18:1/16:0), ratio EOT/BL: 1.02
  N-stearoyl-sphinogosince (d18:1/18:0), ratio EOT/BL: 0.98
  Oleoylcarnitine (C18:1), ratio EOT/BL: 1.1
  Palmitoleoylcarnitine (C16:1)*, ratio EOT/BL: 1.11
  Palmitoylcaritine (C16), ratio EOT/BL: 1.12
  Stearoylcarnitine (C18), ratio EOT/BL: 1.19
  acetylcarnitine (C2), ratio EOT/BL: 1.03
  ceramide (d16:1/24:1, d18:1/22:1), ratio EOT/BL: .095
  ceramide (d18:1/14:0, d16:1/16:0), ratio EOT/BL: 1.05
  ceramide (d18:1/17:0, d17:1/18:0), ratio EOT/BL: 1.12
  ceramide (d18:1/20:0, d16:1/22:0 d20:1/18:0), ratio EOT/BL: 1.05
  isobutyrylcarnitine (C4), ratio EOT/BL: 1.01
  isoleucine, ratio EOT/BL: 0.94
  isovalerylcarnitine (C5), ratio EOT/BL: 0.97
  laurylcarnitine (C12), ratio EOT/BL: 1.17
  leucine, ratio EOT/BL: 0.98
  number of metabolites with p<0.05: 61
  octanoylcarnitine (C8), ratio EOT/BL: 1.21
  valine, ratio EOT/BL: 1.06
[2]; 30 mg
  2-methylbutyrylcarnitine (C5), ratio EOT/BL: 0.96
  3-hydroxybutyrlcarnite, ratio EOT/BL: 1.26
  Adrenoylcarnitine (C22:4)*, ratio EOT/BL: 1.44
  Arachidonoylcarnitine (C20:4), ratio EOT/BL: 1.34
  Arachidoylcarnitine (C20)*, ratio EOT/BL: 1.16
  Ceramide (d18:2/24:1, d18:1/24:2), ratio EOT/BL: 0.92
  Dihomo-linoleoylcarnitine (C20:2)*, ratio EOT/BL: 1.47
  Docosapentaenoylcarnitine (C22:5n3)*, ratio EOT/BL: 1.65
  Eicosenoylcarnitine (C20:1), ratio EOT/BL: 1.43
  Linolenoylcarnitine (C18:3)*, ratio EOT/BL: 1.35
  Linoleoylcarnitine (C18:2)*, ratio EOT/BL: 1.37
  Margaroylcarnitine*, ratio EOT/BL: 1.14
  Myristoycarnitine (C14), ratio EOT/BL: 1.29
  N-acetylleucine, ratio EOT/BL: 0.91
  N-palmitoyl-sphingosince (d18:1/16:0), ratio EOT/BL: 0.89
  N-stearoyl-sphinogosince (d18:1/18:0), ratio EOT/BL: 0.82
  Oleoylcarnitine (C18:1), ratio EOT/BL: 1.51
  Palmitoleoylcarnitine (C16:1)*, ratio EOT/BL: 1.66
  Palmitoylcaritine (C16), ratio EOT/BL: 1.29
  Stearoylcarnitine (C18), ratio EOT/BL: 1.24
  acetylcarnitine (C2), ratio EOT/BL: 1.19
  ceramide (d16:1/24:1, d18:1/22:1), ratio EOT/BL: 0.71
  ceramide (d18:1/14:0, d16:1/16:0), ratio EOT/BL: 0.86
  ceramide (d18:1/17:0, d17:1/18:0), ratio EOT/BL: 0.91
  ceramide (d18:1/20:0, d16:1/22:0 d20:1/18:0), ratio EOT/BL: 0.83
  isobutyrylcarnitine (C4), ratio EOT/BL: 0.77
  isoleucine, ratio EOT/BL: 0.96
  isovalerylcarnitine (C5), ratio EOT/BL: 0.99
  laurylcarnitine (C12), ratio EOT/BL: 1.35
  leucine, ratio EOT/BL: 1
  number of metabolites with p<0.05: 120
  octanoylcarnitine (C8), ratio EOT/BL: 1.44
  valine, ratio EOT/BL: 0.96
[2]; 90 mg
  2-methylbutyrylcarnitine (C5), ratio EOT/BL: 0.81
  3-hydroxybutyrlcarnite, ratio EOT/BL: 1.53
  Adrenoylcarnitine (C22:4)*, ratio EOT/BL: 1.54
  Arachidonoylcarnitine (C20:4), ratio EOT/BL: 1.31
  Arachidoylcarnitine (C20)*, ratio EOT/BL: 1.17
  Ceramide (d18:2/24:1, d18:1/24:2), ratio EOT/BL: 0.99
  Dihomo-linoleoylcarnitine (C20:2)*, ratio EOT/BL: 1.54
  Docosapentaenoylcarnitine (C22:5n3)*, ratio EOT/BL: 1.45
  Eicosenoylcarnitine (C20:1), ratio EOT/BL: 1.61
  Linolenoylcarnitine (C18:3)*, ratio EOT/BL: 1.25
  Linoleoylcarnitine (C18:2)*, ratio EOT/BL: 1.22
  Margaroylcarnitine*, ratio EOT/BL: 1.21
  Myristoycarnitine (C14), ratio EOT/BL: 1.56
  N-acetylleucine, ratio EOT/BL: 0.82
  N-palmitoyl-sphingosince (d18:1/16:0), ratio EOT/BL: 0.89
  N-stearoyl-sphinogosince (d18:1/18:0), ratio EOT/BL: 0.82
  Oleoylcarnitine (C18:1), ratio EOT/BL: 1.46
  Palmitoleoylcarnitine (C16:1)*, ratio EOT/BL: 1.79
  Palmitoylcaritine (C16), ratio EOT/BL: 1.31
  Stearoylcarnitine (C18), ratio EOT/BL: 1.18
  acetylcarnitine (C2), ratio EOT/BL: 1.23
  ceramide (d16:1/24:1, d18:1/22:1), ratio EOT/BL: 0.84
  ceramide (d18:1/14:0, d16:1/16:0), ratio EOT/BL: 0.77
  ceramide (d18:1/17:0, d17:1/18:0), ratio EOT/BL: 0.84
  ceramide (d18:1/20:0, d16:1/22:0 d20:1/18:0), ratio EOT/BL: 0.84
  isobutyrylcarnitine (C4), ratio EOT/BL: 0.57
  isoleucine, ratio EOT/BL: 0.84
  isovalerylcarnitine (C5), ratio EOT/BL: 0.68
  laurylcarnitine (C12), ratio EOT/BL: 1.56
  leucine, ratio EOT/BL: 0.8
  number of metabolites with p<0.05: 120
  octanoylcarnitine (C8), ratio EOT/BL: 1.58
  valine, ratio EOT/BL: 0.79

Reference: patent US20210369680A1, “METHODS OF TREATING DISEASES AND DISORDERS RESULTING FROM BETA CORONAVIRUS INFECTION” (T3D Therapeutics, Inc., priority 2020, published 2021)
